Measured values: patent US20080207522A1, “Antimicrobial Peptides” (priority 2004, published 2008)
Values joined by “and” are separate entries in the source; they are usually repeats but may differ in a detail not shown here. Equal values may be shown once.

Columns and labels:
[1] = tested on: Pseudomonas aeruginosa strain H1001 fliC::luxCDABE; test: Luminescence-based assay for the non-cleaved (bound) peptides on cellulose membranes; format: cell-based; details: for Luminescence at the given time in minutes: 0 / Luminescence at the given time in minutes: 20 / Luminescence at the given time in minutes: 40 / Luminescence at the given time in minutes: 60 / Luminescence at the given time in minutes: 80 / Luminescence at the given time in minutes: 100 / Luminescence at the given time in minutes: 120 / Luminescence at the given time in minutes: 180 / Luminescence at the given time in minutes: 240: cellulose-bound peptide; for Luminescence at the given time in minutes: 0: 0 min; for Luminescence at the given time in minutes: 20: 20 min; for Luminescence at the given time in minutes: 40: 40 min; for Luminescence at the given time in minutes: 60: 60 min; for Luminescence at the given time in minutes: 80: 80 min; for Luminescence at the given time in minutes: 100: 100 min; for Luminescence at the given time in minutes: 120: 120 min; for Luminescence at the given time in minutes: 180: 180 min; for Luminescence at the given time in minutes: 240: 240 min; for Activity Class bound: uncleaved cellulose-bound peptides; for ability to inhibit light production (luminescence): cellulose bound peptide spots, three hours at 37° C., FIG. 2
Experimental: Luminescence-based MIC assay for the non-cleaved peptides on cellulose membranes. The peptide spots were punched out and transferred to a 96 well microtiter plate with a clear polystyrene bottom and opaque white polypropylene sides (PerkinElmer, Boston, USA). The spots were washed two times with 100% ethanol for 5 min and afterwards equilibrated five times with 100 mM Tris buffer pH 7.3 for 5 min. An overnight culture of Pseudomonas aeruginosa strain H1001 fliC::luxCDABE was diluted 1:50 in new MH medium and incubated at 37° C. to an OD600 of 0.35. This bacterial culture was diluted 1:25 into 10 mM Tris-HCl buffer, pH 7.3 containing 20 mM glucose. Fifty μl of this culture was added to all wells of the microtiter plate and incubated at 37° C. The luminescence of the strain produced by the ATP-dependent luciferase system was detected in a time dependent manner using a Tecan Spectra Fluor plus (Tecan, Austria). At the end of the experiment, the membranes were cleaned by washing the spots two times with 100% ethanol for five minutes. After removing the ethanol the membrane was air-dried.
(§1) Strains. For the killing assay a mini-Tn5-lux mutant in Pseudomonas aeruginosa H103 was used. The strain is called H1001 and contains a fliC::luxCDABE transcriptional fusion resulting in constitutive expression of luciferase. The bacterial strains used for the antimicrobial activity assays included Escherichia coli UB1005 (F-, nalA37, metB1), a wild-type Salmonella enterica ssp. Typhimurium (S. Typhimurium), wild-type Pseudomonas aeruginosa PAO1 strain H103, Enterococcus faecalis ATCC29212, Staphylococcus aureus ATCC25923, and a clinical isolate of Staphylococcus epidermidis obtained from Dr. D. Speert (Department of Medicine, University of British Columbia). Antifungal activity was tested using a lab isolate of Candida albicans obtained from Dr. B. Dill (Department of Microbiology and Immunology, University of British Columbia).
The same set of peptides, as well as the reversed sequence of Bac2A-R ([…]; SEQ ID NO: 2166), were synthesized on cellulose and left uncleaved. The production of light was initially compared in wells containing spots of Bac2A, Bac2A-R (with the reversed sequence of Bac2A), the unrelated negative-control peptide, or, as additional controls, only cellulose, or only bacteria (FIG. 2).
As a control, the negative control (unrelated) peptide Bac429 and parent peptide Bac2A (=Bac001) were used in several different wells of the microtiter plate. Luminescence (relative light units; RLU) was measured at 14 different time points, 9 of which are shown. To permit comparison of the data with the free peptide data set, the result for each peptide was classified into six different groups, like the data set with the free peptides (Table 2). […] For the soluble peptides the following classes were established: […]

[2] = tested on: Pseudomonas aeruginosa strain H1001; test: Assay for the cleaved (free, soluble) peptides from cellulose support, luminescence killing assay; format: cell-based; parameters: key: 1: Peptides showing stronger killing than Bac2A at a 4 to 8-fold higher dilution; Peptides showing stronger killing compared to that of Bac2A at a 4-fold higher dilution; 3: Peptides similar to Bac2A; 4: Peptides similar to Bac2A at the highest concentration but demonstrating weaker killing at a 2-fold dilution; 5: Peptides giving very weak or no killing at a 2-fold dilution; 6: Peptides with weak killing activity at the highest concentration; details: free (cleaved) peptides, killing relative to Bac2A
Experimental: Assay for the cleaved peptides from cellulose support. The peptides were cleaved from the dried membrane in an ammonia atmosphere overnight, resulting in free peptides with an amidated C-terminus. The free peptides contained two β-alanines at the C-terminus, in addition to being amidated due to the linker between the cellulose membrane and the peptide sequence. The peptide spots were punched out and transferred in a 96-well microtiter plate. Serial dilutions were carried out from the membrane spots. Four rows were filled with four controls including two with Bac2A and two with of an unrelated peptide. The other eight rows were used for serial dilution steps of the peptide variants. An overnight culture of Pseudomonas aeruginosa strain H1001 was diluted 1:500 using either LB media or 100 mM Tris buffer pH 7.3, 20 mM glucose and was added to the wells (100 μl/well) containing the peptide spots. In all other wells 50 μl were added. The microtiter plate was incubated for 30 min at 37° C. to release the peptides from the membrane. Subsequently, a dilution series were performed and the plate was incubated at 37° C. The luminescence produced by the ATP dependent luciferase system were detected in a time dependent manner using a Tecan Spectra Fluor plus.
as §1
Peptide synthesis on cellulose is a very effective and inexpensive way to investigate many different peptide variants for one particular activity. However, one of the problems of this technique is the low peptide density synthesized on the membrane, about 280 nmol per cm2. An average peptide spot used for the experiments presented is about 0.3 cm2. Therefore, an assay had to be developed that was sensitive enough to show activity with this amount of peptides. P. aeruginosa H1001 has a reporter system (e.g., a luciferase gene cassette) incorporated into the bacterial chromosome in the fliC gene (involved in flagellar biosynthesis) that is constitutively expressed. It will thus produce light if ATP is present. When this strain is killed, e.g. by peptides, the amount of light produced will decrease due to a decrease in ATP levels in the killed cells. This action can thus be monitored by detecting luminescence in a microtiter plate luminescence reader over time. The volume and amount of cells per well were optimized for this assay. After screening, the killing action was monitored with small amounts of the parent peptide Bac2A (2 μg/ml of free peptide).
Forty-nine scrambled peptides (Bac002-Bac050) were synthesized on the cellulose support and then cleaved by ammonia gas resulting in free peptides with an amidated C-terminus including the linker. The peptide spots were transferred to a 96-well microtiter plate and incubated for 30 min to dissociate the peptides from the cellulose. After serial dilution and addition of strain H1001, luminescence was recorded in a time dependent manner (FIG. 1). All 50 scrambled peptides were compared to Bac2A ([…]-NH2; SEQ ID NO: 1) by this assay (see Table 2). […] Further since all scrambled peptides had some activity, a sequence-specific interaction of the peptides with a receptor or target could be excluded.

Row | Sequence | Luminescence at the given time in minutes: 0 [1] | Luminescence at the given time in minutes: 20 [1] | Luminescence at the given time in minutes: 40 [1] | Luminescence at the given time in minutes: 60 [1] | Luminescence at the given time in minutes: 80 [1] | Luminescence at the given time in minutes: 100 [1] | Luminescence at the given time in minutes: 120 [1] | Luminescence at the given time in minutes: 180 [1] | Luminescence at the given time in minutes: 240 [1] | Activity Class bound [1] | Activity Class Soluble [2] | ability to inhibit light production (luminescence) [1]
1 | AAVRRRVRLVII [Bac010] | 4380 RLU | 6719 RLU | 4170 RLU | 1628 RLU | 562 RLU | 129 RLU | 121 RLU | 99 RLU | 56 RLU | 3 (Peptides similar to Bac2A resulting in lux values of less than 500 after 240 min.) | 1 | 
2 | ARAILIRVVRRV [Bac025] | 4354 RLU | 6728 RLU | 3660 RLU | 1127 RLU | 343 RLU | 113 RLU | 115 RLU | 114 RLU | 80 RLU | 3 (Peptides similar to Bac2A resulting in lux values of less than 500 after 240 min.) | 3 | 
3 | ARIARRVRILVV [Bac021] | 5470 RLU | 7247 RLU | 4581 RLU | 1967 RLU | 683 RLU | 278 RLU | 196 RLU | 129 RLU | 128 RLU | 3 (Peptides similar to Bac2A resulting in lux values of less than 500 after 240 min.) | 4 | 
4 | ARRARIRILVVV [Bac032] | 4649 RLU | 6342 RLU | 4584 RLU | 2088 RLU | 595 RLU | 148 RLU | 107 RLU | 54 RLU | 33 RLU | 3 (Peptides similar to Bac2A resulting in lux values of less than 500 after 240 min.) | 4 | 
5 | GATPEDLNQKLS [Bac429, negative control (unrelated) peptide, reference compound] | 4295 RLU and 4593 RLU and 4337 RLU and 4761 RLU and 4537 RLU | 7478 RLU and 7525 RLU and 7118 RLU and 7536 RLU and 7275 RLU | 6031 RLU and 6900 RLU and 6593 RLU and 6318 RLU and 6459 RLU | 5770 RLU and 6732 RLU and 6716 RLU and 6102 RLU and 6149 RLU | 5449 RLU and 6701 RLU and 6273 RLU and 5996 RLU and 6092 RLU | 4779 RLU and 6812 RLU and 6453 RLU and 6086 RLU and 5799 RLU | 4438 RLU and 6872 RLU and 6210 RLU and 5899 RLU and 5611 RLU | 3939 RLU and 7674 RLU and 6656 RLU and 6384 RLU and 5656 RLU |  |  |  | no activity in decreasing luminescence
6 | IILAVRAVRRVR [Bac029] | 4538 RLU | 6664 RLU | 5062 RLU | 3963 RLU | 2745 RLU | 1799 RLU | 1279 RLU | 1012 RLU | 942 RLU | 4 (Peptides reducing luminescence (lux) values to between 500 to 1499 after 240 min.) |  | 
7 | IVVRRRRAALVI [Bac030] | 4618 RLU | 7325 RLU | 5921 RLU | 5326 RLU | 4981 RLU | 4418 RLU | 4087 RLU | 3861 RLU | 3679 RLU | 6 (Peptides having residual luminescence (lux) values greater than 3000 after 240 min.) |  | 
8 | RAVRIVVIRALR [Bac2A-R] |  |  |  |  |  |  |  |  |  |  |  | only a slightly decreased ability to inhibit light production
9 | RRRAIVRVVAIL [Bac023] | 3958 RLU | 7783 RLU | 5656 RLU | 3751 RLU | 1827 RLU | 761 RLU | 329 RLU | 123 RLU | 79 RLU | 3 (Peptides similar to Bac2A resulting in lux values of less than 500 after 240 min.) |  | 
10 | RVLIARVVRAIR [Bac027] | 4437 RLU | 6695 RLU | 4991 RLU | 4421 RLU | 4011 RLU | 3545 RLU | 3100 RLU | 3182 RLU | 3513 RLU | 6 (Peptides having residual luminescence (lux) values greater than 3000 after 240 min.) |  | 
